Consider two compounds from patent publication US12318435B2, “Recombinant protein produced from cholinesterase gene derived from Pseudomonas aeruginosa and the composition comprising the same for treating or preventing a neurological disease” (priority 2019, dated 2025).

Each structure is given as a SMILES string.

Format in all cases: in vivo
In one assay the test system is choline. Put plainly: Blood level of choline in pesticide-exposed animal model. As to conditions: serum of the mice of Experimental Example 2; for Level of blood acetylcholine, Concentration: absorbance 570 nm. The method, then: In order to determine the effect on the blood level of choline of the inventive NP protein in pesticide-exposed animal model, following test was performed by the procedure disclosed in the literature (Choline/Acetylcholine Quantification Colorimetric/Fluorometric Kit, Biovision incorporated 155 S Milpitas Boulevard, Milpitas, Calif. 95035 USA).
(§1) Specific pathogen-free female ICR mice (about 20 g, aged 6 weeks) were purchased from ORIENT Co. (Seoul, Korea) and acclimated with the experimental environment for 1 week.
(§2) The mice used in Experimental Example 2 intraperitoneally injected with […] of NP protein as a test sample group, were killed with carbon dioxide gas (Shinyang Oxygen Industry, Korea) and the blood was collected from the heart to isolate the serum.
The choline level of blood serum was determined Choline/Acetylcholine Quantification Colorimetric/Fluorometric Kit (Cat. No. K615-100, Biovision).
1 μL of serum was added to 49 μL of buffer solution in the kit and the reaction mixture containing […] of buffer solution, 2 μL of choline probe, 2 μL of ACHE and 2 μL of enzyme mixture solution was added thereto to react together in the shadow at 25° C. for 30 mins.
30 mins after the reaction, the absorbance of the reaction solution was determined at 570 nm using by spectrometer (Multiskan Go., Thermo Scientific) and the determined level was transformed into absolute value by comparing with the level of standard curve.
The level of choline was calculated according to following Math. 1 Blood Level of choline(nmole/mL or micromole)=(calculated level of choline through standard curve)/(the amount of samples in each well;mL). [Math. 1] 3-2. Test Result

The next assay concerns ACHE activity. Put plainly: Serum ACHE activity of pesticide-exposed mice. As to conditions: serum of the mice of Experimental Example 2; for ACHE activity, Concentration (mU/mL): 25° C., 570 nm. On the procedure: as §1, §2
30 mins after the reaction, the absorbance of the reaction solution was determined at every 1 min at 570 nm using by spectrometer (Multiskan Go., Thermo Scientific) and the determined level was calculated according to following Math. […] [Math. 2] 4-2. Test Result

In the next assay the test system is ICR mice. As to the kind of experiment: Survival rate in pesticide-exposed animal model. As to conditions: female ICR mice, intraperitoneal; 250 μg NP protein, 30 μg carbofuran, 9 mg trichlorfon; NP 40 mins before pesticide; survival observed for 30 mins. On the procedure:
In order to determine the survival rate of the inventive NP protein on pesticide-exposed animal model, following test was performed by the procedure disclosed in the literature (Gupta, Ramesh C., ‘Carbofuran toxicity’, Journal of Toxicology and Environmental Health, Part A, 43:4, pp 383-418, 1994).
as §1
250 μg of NP protein was intraperitoneally injected to the mice as a test sample group to observe the behavior of the mice for 40 mins and 30 μg of carbofuran and 9 mg of trichlorfon were intraperitoneally injected to the mice to observe the survival rate of the mice for 30 mins.
The group intraperitoneally injected with only 30 μg of carbofuran or 9 mg of trichlorfon were used as positive control groups to observe the survival rate of the mice and the group intraperitoneally injected with only distilled water […] was used as a negative control group to observe the survival rate of the mice.

In the case of `CNC(=O)Oc1cccc2c1OC(C)(C)C2` [Carbofuran], in the assay on choline, the “amount of acetylcholine (in words)” value was “sharply increased amount of acetylcholine” and the “Level of blood acetylcholine, Concentration” value stood at 1.8 nmol/mL. Further, in the assay on ACHE activity, the “ACHE activity compared with negative control group (in words)” value is “decreased ACHE activity” and the “ACHE activity, Concentration (mU/mL)” value is 463.8 mU/mL. The “Survival rate (%)” value in the assay on ICR mice was 0%.
For `COP(=O)(OC)C(O)C(Cl)(Cl)Cl` (stereo not shown) [Trichlorfon, trichlorfon], in that order: “sharply increased amount of acetylcholine”, 1.4 nmol/mL, “decreased ACHE activity”, 117.7 mU/mL and 60%.
